Experiment [1] addresses Myosin-IIIa (Homo sapiens) (UniProt Q8NEV4). Put plainly: Selectivity interaction (LanthaScreen Eu Kinase Binding Assay) EUB0001632a MYO3A. The following applies: at 10 µM.
Experiment [2] deals with Phosphatidylinositol 4,5-bisphosphate 3-kinase catalytic subunit beta isoform (Homo sapiens) (UniProt P42338). Description: Selectivity interaction (KinomeScan (DiscoverX)) EUB0000607a PIK3CB. The following applies: at 10 µM.
Experiment [3] concerns the target T1, Receptor tyrosine-protein kinase erbB-4 (Homo sapiens, UniProt Q15303). Put plainly: Selectivity interaction (SelectScreen profiling (Invitrogen)) EUB0000607a ERBB4. The following applies: at 2 µM.
Experiment [4] addresses T2, Dual serine/threonine and tyrosine protein kinase (Homo sapiens) (UniProt Q6XUX3).
T2 sequence (whole entry): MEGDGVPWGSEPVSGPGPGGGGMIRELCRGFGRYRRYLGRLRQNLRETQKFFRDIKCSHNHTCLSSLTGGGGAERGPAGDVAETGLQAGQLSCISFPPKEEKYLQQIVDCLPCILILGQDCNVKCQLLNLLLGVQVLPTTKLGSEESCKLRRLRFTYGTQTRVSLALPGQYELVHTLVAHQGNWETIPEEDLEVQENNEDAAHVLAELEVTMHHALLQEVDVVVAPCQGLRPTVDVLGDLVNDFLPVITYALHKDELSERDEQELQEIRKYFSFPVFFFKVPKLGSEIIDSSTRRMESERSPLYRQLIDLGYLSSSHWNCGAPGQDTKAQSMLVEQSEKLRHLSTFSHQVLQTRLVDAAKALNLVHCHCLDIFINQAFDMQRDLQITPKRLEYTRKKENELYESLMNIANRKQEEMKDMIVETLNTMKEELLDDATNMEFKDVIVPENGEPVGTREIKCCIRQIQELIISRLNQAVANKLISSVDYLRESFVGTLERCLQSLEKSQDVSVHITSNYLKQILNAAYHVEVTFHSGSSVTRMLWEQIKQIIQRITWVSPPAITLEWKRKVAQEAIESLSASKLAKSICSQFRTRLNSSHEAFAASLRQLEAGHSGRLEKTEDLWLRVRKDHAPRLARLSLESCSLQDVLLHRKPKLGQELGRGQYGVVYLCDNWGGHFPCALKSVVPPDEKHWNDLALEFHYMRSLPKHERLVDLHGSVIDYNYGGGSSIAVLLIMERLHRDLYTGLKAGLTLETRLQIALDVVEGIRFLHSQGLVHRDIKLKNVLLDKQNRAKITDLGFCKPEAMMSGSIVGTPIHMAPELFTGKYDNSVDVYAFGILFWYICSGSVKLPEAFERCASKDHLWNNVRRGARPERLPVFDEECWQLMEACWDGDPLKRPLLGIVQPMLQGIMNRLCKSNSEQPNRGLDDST
Description: Selectivity interaction (KinomeScan (DiscoverX)) EUB0001550a DSTYK. Conditions: at 1 µM.

The subject of experiment [5] is Serine/threonine-protein kinase B-raf (Homo sapiens), P15056 [V600E]. Conditions: at 10 µM.
Experiment [6] deals with 5'-AMP-activated protein kinase catalytic subunit alpha-2 (Homo sapiens) (UniProt P54646). Description: Selectivity interaction (ActivX KiNativ screen (kinase selectivity in THP-1 cell lysates)) EUB0000639a PRKAA2. The class given is subcellular. The following applies: lysate, at 5 µM.
Sequence of 5'-AMP-activated protein kinase catalytic subunit alpha-2 (Homo sapiens) (P54646 whole entry, looked up): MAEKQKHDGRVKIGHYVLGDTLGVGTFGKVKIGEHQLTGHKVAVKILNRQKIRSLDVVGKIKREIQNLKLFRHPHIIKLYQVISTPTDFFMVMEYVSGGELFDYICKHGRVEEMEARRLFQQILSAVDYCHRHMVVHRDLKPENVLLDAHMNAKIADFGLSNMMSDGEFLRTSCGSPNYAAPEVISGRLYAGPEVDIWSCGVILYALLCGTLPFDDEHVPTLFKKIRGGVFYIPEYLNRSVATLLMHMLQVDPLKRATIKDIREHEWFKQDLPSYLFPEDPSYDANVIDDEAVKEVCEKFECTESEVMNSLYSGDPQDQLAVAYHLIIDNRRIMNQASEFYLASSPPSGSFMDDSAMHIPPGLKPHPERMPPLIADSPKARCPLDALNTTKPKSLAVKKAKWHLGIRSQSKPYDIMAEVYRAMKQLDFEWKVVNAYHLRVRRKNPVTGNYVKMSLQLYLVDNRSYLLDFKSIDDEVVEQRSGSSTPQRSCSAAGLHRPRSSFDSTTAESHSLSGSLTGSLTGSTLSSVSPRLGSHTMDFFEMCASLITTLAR
Experiment [7] concerns the target T1, Receptor tyrosine-protein kinase erbB-4. Put plainly: Selectivity interaction (KinomeScan (DiscoverX)) EUB0001049a ERBB4. Conditions: at 1 µM.
Experiment [8] has as its target Death-associated protein kinase 1 (Homo sapiens, UniProt P53355). Put plainly: Selectivity interaction (Upstate Kinase Profiler service (Millipore)) EUB0000056c DAPK1. The following applies: at 1 µM.
Experiment [9] has as its target T3, Tyrosine-protein kinase receptor TYRO3 (Homo sapiens) (UniProt Q06418).
T3 sequence (whole entry): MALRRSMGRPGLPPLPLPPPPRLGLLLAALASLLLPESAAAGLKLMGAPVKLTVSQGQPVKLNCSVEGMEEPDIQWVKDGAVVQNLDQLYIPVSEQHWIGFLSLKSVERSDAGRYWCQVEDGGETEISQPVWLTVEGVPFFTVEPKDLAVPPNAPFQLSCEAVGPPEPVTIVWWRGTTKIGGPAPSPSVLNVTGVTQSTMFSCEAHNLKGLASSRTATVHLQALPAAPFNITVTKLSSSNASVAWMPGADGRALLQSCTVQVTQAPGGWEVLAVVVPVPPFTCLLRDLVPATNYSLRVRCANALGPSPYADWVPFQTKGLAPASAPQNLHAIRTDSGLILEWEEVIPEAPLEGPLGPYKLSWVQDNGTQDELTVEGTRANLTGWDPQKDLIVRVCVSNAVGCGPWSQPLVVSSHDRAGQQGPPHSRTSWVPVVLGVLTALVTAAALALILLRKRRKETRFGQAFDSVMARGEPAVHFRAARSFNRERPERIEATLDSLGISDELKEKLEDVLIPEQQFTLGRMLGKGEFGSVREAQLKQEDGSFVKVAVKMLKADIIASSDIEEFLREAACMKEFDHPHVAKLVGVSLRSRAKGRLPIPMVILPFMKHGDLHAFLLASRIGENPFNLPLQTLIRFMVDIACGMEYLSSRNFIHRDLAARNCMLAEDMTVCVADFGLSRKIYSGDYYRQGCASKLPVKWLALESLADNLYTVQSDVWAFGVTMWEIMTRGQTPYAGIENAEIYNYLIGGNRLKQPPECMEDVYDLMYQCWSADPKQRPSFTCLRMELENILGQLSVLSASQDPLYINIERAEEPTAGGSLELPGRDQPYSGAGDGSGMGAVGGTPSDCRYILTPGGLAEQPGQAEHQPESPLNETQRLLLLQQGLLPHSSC
Description: Selectivity interaction (KinomeScan (DiscoverX)) EUB0000618a TYRO3. Conditions: at 10 µM.

The target in experiment [10] is SRSF protein kinase 3 (Homo sapiens) (UniProt Q9UPE1). Description: Selectivity interaction (KinomeScan (DiscoverX)) EUB0000618a SRPK3. Conditions: at 10 µM.
Experiment [11] addresses Death-associated protein kinase 3 (Homo sapiens) (UniProt O43293). Put plainly: Selectivity interaction (KinomeScan (DiscoverX)) EUB0000092b DAPK3. Conditions: at 10 µM.
Experiment [12] has as its target T4, Serine/threonine-protein kinase ULK3 (Homo sapiens) (UniProt Q6PHR2).
T4 sequence (whole entry): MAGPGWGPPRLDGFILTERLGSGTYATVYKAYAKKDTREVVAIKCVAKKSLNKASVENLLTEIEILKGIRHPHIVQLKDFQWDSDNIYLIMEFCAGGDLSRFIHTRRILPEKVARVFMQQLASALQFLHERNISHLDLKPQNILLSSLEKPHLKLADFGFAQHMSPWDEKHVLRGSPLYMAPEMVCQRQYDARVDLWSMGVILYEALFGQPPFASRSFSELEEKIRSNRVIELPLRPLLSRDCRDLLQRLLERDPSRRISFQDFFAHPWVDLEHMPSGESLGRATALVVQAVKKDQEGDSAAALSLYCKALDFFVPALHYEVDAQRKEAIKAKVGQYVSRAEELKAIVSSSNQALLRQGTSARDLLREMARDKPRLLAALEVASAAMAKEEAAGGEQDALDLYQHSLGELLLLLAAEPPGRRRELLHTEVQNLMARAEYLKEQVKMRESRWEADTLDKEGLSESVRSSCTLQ
Put plainly: Selectivity interaction (KinomeScan (DiscoverX)) EUB0001079a ULK3. Conditions: at 1 µM.

For ten compounds, % of inhibition and % of control results are on record in ChEMBL document CHEMBL5465560, “Selectivity Literature for EUbOPEN Chemogenomic Library” (2024).

T1 sequence (Q15303 whole entry): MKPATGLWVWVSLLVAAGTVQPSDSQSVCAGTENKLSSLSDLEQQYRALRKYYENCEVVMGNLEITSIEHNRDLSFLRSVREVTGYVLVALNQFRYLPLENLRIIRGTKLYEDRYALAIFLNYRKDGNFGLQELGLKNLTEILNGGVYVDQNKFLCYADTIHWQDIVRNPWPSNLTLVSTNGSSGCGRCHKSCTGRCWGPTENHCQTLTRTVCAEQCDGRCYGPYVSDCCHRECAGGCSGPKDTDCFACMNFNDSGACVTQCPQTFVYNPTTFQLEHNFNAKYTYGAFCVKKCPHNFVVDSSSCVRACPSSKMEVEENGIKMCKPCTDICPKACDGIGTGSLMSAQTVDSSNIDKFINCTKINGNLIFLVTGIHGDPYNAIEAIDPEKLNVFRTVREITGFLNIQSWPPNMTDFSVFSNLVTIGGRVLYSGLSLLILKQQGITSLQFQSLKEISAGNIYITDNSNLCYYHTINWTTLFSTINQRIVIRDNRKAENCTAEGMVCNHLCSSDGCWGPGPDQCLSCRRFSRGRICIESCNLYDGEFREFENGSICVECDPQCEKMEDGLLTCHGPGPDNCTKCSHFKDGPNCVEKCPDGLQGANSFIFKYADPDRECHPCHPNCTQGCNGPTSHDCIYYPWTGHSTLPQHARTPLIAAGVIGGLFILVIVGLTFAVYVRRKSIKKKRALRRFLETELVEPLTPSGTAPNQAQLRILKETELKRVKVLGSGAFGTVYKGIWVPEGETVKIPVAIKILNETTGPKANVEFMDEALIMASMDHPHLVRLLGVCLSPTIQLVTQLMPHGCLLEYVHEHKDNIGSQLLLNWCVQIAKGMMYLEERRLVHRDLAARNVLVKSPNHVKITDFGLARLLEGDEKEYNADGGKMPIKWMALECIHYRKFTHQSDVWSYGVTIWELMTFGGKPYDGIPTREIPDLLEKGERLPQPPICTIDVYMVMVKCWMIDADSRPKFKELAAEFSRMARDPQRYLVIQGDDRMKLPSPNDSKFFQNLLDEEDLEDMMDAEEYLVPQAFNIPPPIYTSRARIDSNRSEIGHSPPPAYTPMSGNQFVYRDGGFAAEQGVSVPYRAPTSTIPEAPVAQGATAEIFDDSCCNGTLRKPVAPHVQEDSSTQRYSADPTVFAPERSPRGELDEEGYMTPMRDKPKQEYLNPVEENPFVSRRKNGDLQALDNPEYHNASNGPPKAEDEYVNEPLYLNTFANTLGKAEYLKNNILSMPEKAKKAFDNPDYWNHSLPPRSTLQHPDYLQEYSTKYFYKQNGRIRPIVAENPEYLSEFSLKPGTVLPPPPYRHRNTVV
Sequence of Serine/threonine-protein kinase B-raf (Homo sapiens), P15056 [V600E] (P15056 whole entry V600E): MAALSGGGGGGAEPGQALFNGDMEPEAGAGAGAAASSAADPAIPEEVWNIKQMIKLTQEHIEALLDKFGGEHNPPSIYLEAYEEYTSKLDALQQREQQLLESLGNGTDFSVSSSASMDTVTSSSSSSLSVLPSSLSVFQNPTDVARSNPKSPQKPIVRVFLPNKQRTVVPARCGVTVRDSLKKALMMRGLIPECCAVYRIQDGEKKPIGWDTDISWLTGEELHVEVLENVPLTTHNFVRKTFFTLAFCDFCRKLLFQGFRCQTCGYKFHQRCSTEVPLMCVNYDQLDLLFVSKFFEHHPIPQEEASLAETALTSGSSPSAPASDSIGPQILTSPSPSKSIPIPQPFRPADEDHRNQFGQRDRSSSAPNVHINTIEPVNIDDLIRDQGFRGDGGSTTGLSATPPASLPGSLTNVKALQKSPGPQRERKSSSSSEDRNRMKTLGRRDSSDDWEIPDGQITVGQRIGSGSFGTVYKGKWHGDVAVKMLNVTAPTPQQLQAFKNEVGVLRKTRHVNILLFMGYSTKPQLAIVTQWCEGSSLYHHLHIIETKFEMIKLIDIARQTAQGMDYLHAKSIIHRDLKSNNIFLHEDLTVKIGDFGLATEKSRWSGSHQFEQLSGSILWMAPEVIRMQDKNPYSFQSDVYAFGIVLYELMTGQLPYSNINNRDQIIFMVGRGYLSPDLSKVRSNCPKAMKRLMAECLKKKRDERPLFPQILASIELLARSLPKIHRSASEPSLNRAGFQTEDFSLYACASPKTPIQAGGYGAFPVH
Sequence of Death-associated protein kinase 1 (P53355 whole entry, looked up): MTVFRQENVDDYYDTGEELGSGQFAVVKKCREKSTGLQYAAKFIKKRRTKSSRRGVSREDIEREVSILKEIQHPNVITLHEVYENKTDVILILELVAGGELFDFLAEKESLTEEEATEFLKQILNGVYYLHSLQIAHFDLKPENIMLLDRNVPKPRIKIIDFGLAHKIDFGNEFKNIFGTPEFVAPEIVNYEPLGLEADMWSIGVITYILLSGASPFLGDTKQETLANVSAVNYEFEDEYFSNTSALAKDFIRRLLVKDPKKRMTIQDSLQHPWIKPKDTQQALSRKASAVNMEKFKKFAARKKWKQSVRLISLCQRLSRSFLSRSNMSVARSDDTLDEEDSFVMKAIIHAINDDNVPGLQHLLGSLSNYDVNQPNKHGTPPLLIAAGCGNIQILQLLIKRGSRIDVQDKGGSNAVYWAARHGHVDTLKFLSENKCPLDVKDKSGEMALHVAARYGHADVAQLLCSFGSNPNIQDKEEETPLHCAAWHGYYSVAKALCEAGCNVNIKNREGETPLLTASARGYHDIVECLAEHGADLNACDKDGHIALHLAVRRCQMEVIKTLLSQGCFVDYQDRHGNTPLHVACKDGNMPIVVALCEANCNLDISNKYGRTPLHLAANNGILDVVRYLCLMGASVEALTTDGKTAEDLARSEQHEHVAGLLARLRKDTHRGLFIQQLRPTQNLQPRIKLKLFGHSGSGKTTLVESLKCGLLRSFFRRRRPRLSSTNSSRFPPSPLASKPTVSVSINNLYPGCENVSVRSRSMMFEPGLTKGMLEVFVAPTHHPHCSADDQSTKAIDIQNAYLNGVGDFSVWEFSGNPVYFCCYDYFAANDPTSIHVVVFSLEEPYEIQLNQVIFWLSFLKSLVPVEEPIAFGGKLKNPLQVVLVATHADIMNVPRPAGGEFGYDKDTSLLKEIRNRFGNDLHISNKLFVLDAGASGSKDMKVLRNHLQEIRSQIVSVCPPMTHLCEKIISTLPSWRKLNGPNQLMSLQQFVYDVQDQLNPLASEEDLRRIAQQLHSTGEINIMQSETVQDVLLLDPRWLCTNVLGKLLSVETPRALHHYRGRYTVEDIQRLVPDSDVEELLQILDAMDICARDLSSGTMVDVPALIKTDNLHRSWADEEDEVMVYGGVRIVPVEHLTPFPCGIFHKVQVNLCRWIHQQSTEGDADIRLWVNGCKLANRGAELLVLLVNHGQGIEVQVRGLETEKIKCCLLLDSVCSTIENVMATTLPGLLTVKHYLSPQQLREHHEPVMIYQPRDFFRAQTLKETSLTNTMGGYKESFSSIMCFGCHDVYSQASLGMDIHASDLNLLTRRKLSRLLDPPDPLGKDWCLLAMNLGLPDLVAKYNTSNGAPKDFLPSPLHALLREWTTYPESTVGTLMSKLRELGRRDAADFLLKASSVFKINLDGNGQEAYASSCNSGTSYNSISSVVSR
Sequence of Phosphatidylinositol 4,5-bisphosphate 3-kinase catalytic subunit beta isoform (Homo sapiens) (P42338 whole entry, looked up, canonical isoform): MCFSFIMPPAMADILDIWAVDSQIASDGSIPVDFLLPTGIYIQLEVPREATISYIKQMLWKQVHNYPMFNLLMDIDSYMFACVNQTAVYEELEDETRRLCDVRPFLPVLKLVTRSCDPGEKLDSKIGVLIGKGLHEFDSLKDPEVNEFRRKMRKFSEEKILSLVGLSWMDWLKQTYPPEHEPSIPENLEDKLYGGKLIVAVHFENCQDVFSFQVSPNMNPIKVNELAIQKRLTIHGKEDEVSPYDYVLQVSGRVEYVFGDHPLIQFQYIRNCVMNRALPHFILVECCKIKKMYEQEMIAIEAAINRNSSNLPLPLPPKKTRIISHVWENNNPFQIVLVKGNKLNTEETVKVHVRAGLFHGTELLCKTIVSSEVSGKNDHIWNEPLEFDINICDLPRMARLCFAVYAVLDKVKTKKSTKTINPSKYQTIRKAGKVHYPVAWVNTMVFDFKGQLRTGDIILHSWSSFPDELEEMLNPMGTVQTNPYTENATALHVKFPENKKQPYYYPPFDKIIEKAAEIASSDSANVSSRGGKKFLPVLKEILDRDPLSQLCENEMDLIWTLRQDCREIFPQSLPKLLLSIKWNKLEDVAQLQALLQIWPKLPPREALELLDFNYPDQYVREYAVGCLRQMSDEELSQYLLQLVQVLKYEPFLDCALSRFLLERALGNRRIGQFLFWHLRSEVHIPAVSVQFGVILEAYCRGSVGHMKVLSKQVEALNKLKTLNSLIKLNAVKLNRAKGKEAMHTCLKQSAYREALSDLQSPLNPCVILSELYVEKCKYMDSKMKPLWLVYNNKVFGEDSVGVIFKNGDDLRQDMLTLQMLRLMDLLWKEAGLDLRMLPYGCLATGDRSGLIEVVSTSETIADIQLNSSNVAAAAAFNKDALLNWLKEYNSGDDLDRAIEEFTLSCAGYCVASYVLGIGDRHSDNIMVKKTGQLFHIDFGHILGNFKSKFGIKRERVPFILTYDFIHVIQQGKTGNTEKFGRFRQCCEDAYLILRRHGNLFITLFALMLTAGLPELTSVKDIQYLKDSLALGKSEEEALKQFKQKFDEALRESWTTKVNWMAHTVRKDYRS

For `Cn1cc(-n2cnc3c(NCc4nc5cc(Cl)c(Cl)cc5[nH]4)nc(N4CCOCC4)nc32)cn1`, the % of inhibition in experiment [1] was -42.6%.
Compound `CNC(=O)Nc1ccc(-c2nc(N3CC4CCC(C3)O4)c3cnn(C4CCC5(CC4)OCCO5)c3n2)cc1` displayed a % of control in experiment [2] of 46%. Further, in experiment [3], the % of inhibition amounted to 3%.
Compound `CN(C)CC#Cc1ccc2[nH]c3c(c2c1)-c1nc(N)ncc1CCC3` came in with a % of control in experiment [4] of 5.2%.
In the case of `Cc1cc([C@@H](C)Nc2ccccc2C(=O)O)c2nc(N3CCOCC3)cc(=O)n2c1` [AZD-6482], the % of control in [5] turned out to be 92%.
For the compound `CC[C@@H]1[C@H](F)C(=O)N[C@@H]1COc1nccc2cc(C(N)=O)c(OC)cc12` [ZIMLOVISERTIB], the % of inhibition in experiment [6] amounted to 18.6%.
Turning to `COc1cc(Nc2nc(C)cc(-c3cnn4nc(OC)ccc34)n2)cc(C(F)(F)F)c1`, in [7], the % of control came out at 90%.
Take `Cc1ccc(-c2ccc3c(ccc4sc5c(c43)NC[C@@H](C)NC5=O)n2)cn1`: the % of inhibition in [8] was found to be 11%.
On to `O[C@H]1CC[C@H](Nc2ncc3nc(Nc4c(F)cc(F)cc4F)n([C@H]4CCOC4)c3n2)CC1`, for which the % of control is 100% in experiment [9] and 92% in [10].
In experiment [11], `CCC(=O)N1CCN(c2ccc(-n3c(=O)ccc4cnc5ccc(-c6cnc7ccccc7c6)cc5c43)cc2C(F)(F)F)CC1` came in with a % of control of 82%.
`Nc1cnc(N2CCc3cc(S(=O)(=O)Nc4c(F)cc(Cl)cc4F)cc(N4CCCC4=O)c32)nc1` [TP-020n] displayed a % of control in experiment [12] of 100%.
